Measurements as given in US5827720A, “α-glucosidase, and a process for producing the same” (priority 1995, dated 1998).

test system: α-glucosidase (the present enzyme) from Bacillus sp. KS-108a (FERM BP-5337); assay: not given; format: biochemical; conditions: 0.01 ml of 22 mM inhibitor added to 0.1 ml enzyme in 100 mM HEPES-NaOH pH 7.0 with 0.2% BSA, 25° C., 1 hour; then diluted 100-fold, activity on PNPG; control = 100
Description: (§1) First, 0.25 ml of Solution 1 and 0.5 ml of Solution 2 were mixed and pre-incubated at 37° C. for 5 minutes, and then the solution was mixed with 0.25 ml enzyme solution (about 0.005 to 0.03 U/ml) and reacted accurately for 15 minutes at 37° C.
(§2) Then, the reaction was stopped by adding 1 ml of Solution 3 to the reaction solution and the paranitrophenol thus formed was colored. This sample was measured for absorbance at 400 nm in a spectrophotometer (U-2000A, Hitachi Ltd.).
The effect of treatment with various inhibitors was evaluated in the following manner.
0.1 ml of 0.0667 mg/ml of the present enzyme in 100 mM HEPES-NaOH buffer, pH 7.0 containing 0.2% BSA was added to 0.01 ml of 22 mM inhibitor (1.1% in the case of a surfactant as inhibitor) and incubated at 25° C. for 1 hour. Then, the sample was diluted 100-fold with 10 mM potassium phosphate buffer (pH 7.0) containing 0.2% BSA, and the remaining activity was determined in the same manner as above in titer measurement.

Point of comparison: `O[C@H](CS)[C@H](O)CS` (racemic) [dithiothreitol], “remaining activity (%)” value 105.4%. Against it:
- OCCS [2-mercaptoethanol] — lower, 99.6%
- O=C(O)c1ccccc1[N+](=O)[O-] [2-nitrobenzoic acid] — lower, 102.7%
- CCN1C(=O)C=CC1=O [N-ethylmaleimide] — higher, 107.5%
- O=C(O)c1cc[c]([Hg][Cl])cc1 [PCMB, p-chloromercuribenzoic acid] — lower, 97.7%
- c1cnc2c(c1)ccc1cccnc12 [o-phenanthroline] — lower, 99.4%
- [N-]=[N+]=[N-] [sodium azide] — lower, 105.0%

same assay, conditions: 22 mM inhibitor stock, 25° C., 1 hour

In the case of `CCN1C(=O)C=CC1=O` [N-ethylmaleimide], the “effect of treatment with inhibitor on the enzyme (in words)” value is reported as “not affected”.
With `O=C(O)c1cc[c]([Hg][Cl])cc1` [PCMB, p-chloromercuribenzoic acid] the “effect of treatment with inhibitor on the enzyme (in words)” value was “not affected”.

same assay, conditions: pH 7

Point of comparison: `N[C@@H](CCC(=O)N[C@@H](CS)C(=O)NCC(=O)O)C(=O)O` [glutathione], “remaining activity (%)” value 102.5%. Against it:
- O=C(O)CN(CCN(CC(=O)O)CC(=O)O)CC(=O)O [EDTA-2Na] — higher, 106.4%
- O=C(O)CI [monoiodoacetic acid] — lower, 98.5%

test system: α-glucosidase (the present enzyme) from Bacillus sp. KS-108a (FERM BP-5337); assay: Km value by Lineweaver-Burk plotting; format: biochemical; conditions: pH 7.0, 37° C., read-out: Km (PNPG as substrate)
Description: The measurement of the titer of the present enzyme was carried out in the following manner. The amount of the enzyme causing 1 μ mol paranitrophenol per minute to be released from PNPG was assumed as 1 U of the enzyme. (Preparation of a substrate solution, a buffer, a reaction terminating solution, and an enzyme diluent)
as §1, §2

`O=[N+]([O-])c1ccc(O[C@H]2O[C@H](CO)[C@@H](O)[C@H](O)[C@H]2O)cc1` [PNPG, paranitrophenyl-α-D-glucopyranoside] showed a Km of 55 µM.
